Measurements published in US10155742B2, “Halofuginol derivatives and their use in cosmetic and pharmaceutical compositions” (President and Fellows of Harvard College, priority 2012, dated 2018).

What was measured:
[1] = target: T1, ProRS (amino acids 998-1513 of human EPRS) (Homo sapiens, UniProt P07814); test: [3H]-HFol binding to immobilized ProRS; conditions: FIG. 3A
T1 construct: Purified 6-his tagged ProRS (amino acids 998-1513 of human EPRS) was immobilized on N-NTA beads; made in house; host or cells: E. coli BL21(DE3), plasmid pKS509
T1 sequence (P07814 998-1512 limits assumed): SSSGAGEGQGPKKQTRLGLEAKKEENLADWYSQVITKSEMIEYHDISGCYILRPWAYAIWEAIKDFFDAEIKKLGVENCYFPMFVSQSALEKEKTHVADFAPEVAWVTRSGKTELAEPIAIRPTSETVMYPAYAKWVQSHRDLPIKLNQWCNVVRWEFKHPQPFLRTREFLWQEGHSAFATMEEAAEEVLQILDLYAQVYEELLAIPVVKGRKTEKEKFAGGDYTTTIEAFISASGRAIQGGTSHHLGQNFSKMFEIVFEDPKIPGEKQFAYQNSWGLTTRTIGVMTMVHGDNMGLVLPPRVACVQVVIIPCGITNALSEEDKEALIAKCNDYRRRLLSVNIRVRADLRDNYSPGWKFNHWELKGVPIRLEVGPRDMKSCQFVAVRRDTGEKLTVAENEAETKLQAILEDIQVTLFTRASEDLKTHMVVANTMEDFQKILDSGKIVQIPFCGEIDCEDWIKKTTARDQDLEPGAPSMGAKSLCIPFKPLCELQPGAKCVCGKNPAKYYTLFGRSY
Protocol: B) [^3H]-HFol binding was assayed as described above in the presence of indicated concentrations of proline. […] IMR90 lung fibroblasts were treated with a siRNAs directed against EPRS (Dharmacon) or a control siRNA mixture for 48 hours, and then treated with HF for 2 hours (pGCN2) and examined for EPRS protein levels, GCN2 total protein and phospho-GCN2 by Western blot. D) EPRS depleted IMR90 cells were compared to control cells with respect to HF induction of the AAR marker CHOP by Q-PCR. Equal concentrations of total cellular protein were loaded in each Western blot lane. CHOP expression was standardized to expression of phosphoglycerate kinase 1 (PGK1) and glyceraldehyde-3-phosphate-dehydrogenase (GAPDH). Data shown are representative of three separate experiments.
Prolyl sulfamoyl adenosine (ProSAd) or alanyl sulfamoyl adenosine (AlaSAd), analogs of the corresponding aminoacyl adenylate, were coincubated with [^3H]-HFol as in FIG. 2. […] Binding of [^3H]-HFol was assayed as in FIG. 3, except that the nucleotide type and concentration was varied as indicated.
To examine HF binding to ProRS, ^3H HFol was synthesized by American Radiochemicals (St. Louis) by reduction of MAZ1310 (3) at the ketone with NaB^3H4, followed by removal of the Boc protecting group with 10% trifluoroacetic acid in dichloromethane, and HPLC purification of the ^3H HFol. 100 nM ^3H HFol was incubated with ProRS immobilized on Ni-NTA beads (Pierce) in 50 mM Tris pH 7.5, 5 mM MgCl2, 20 mM Imidazole, 1 mM DTT, 10% glycerol, and nucleotides, proline, or HF derivatives at room temperature for 10 minutes as indicated. After incubation, beads were washed twice with ice-cold wash buffer (50 mM Tris 7.5; 20 mM Imidazole; 1 mM DTT, 20% glycerol). ^3H HFol bound after washing was measured by liquid scintillation counting. Ni-NTA beads incubated with E. coli extracts lacking tagged ProRS were used as a background reference in all experiments.

[2] = test system: mTORC1 signaling in MEFs; test: mTORC1 pathway phosphorylation by Western blot; format: cell-based, mouse; conditions: 100 nM HF, FIG. 16
Protocol: MEFs growing in DME/10% FCS were treated with 100 nM HF or 0.5 μM rapamycin and analyzed by Western blot for phosphorylation of component of the mTor signaling pathway.

[3] = test system: dermal ECM deposition; conditions: intraperitoneally, added to food, or applied locally; Pines et al. 2003; cited from earlier work

O=C(C[C@H]1NCCC[C@@H]1O)Cn1cnc2cc(Br)c(Cl)cc2c1=O (racemic) [HF, 7-bromo-6-chloro-3-[3-(3-hydroxy-2-piperidinyl)-2-oxopropyl]-4(3H)-quinazolinone]
competition of [3H]-HFol binding to ProRS [1]: competed | inhibition of mTORC1 signaling / downstream targets [2]: without concomitant inhibition | inhibition of mTORC1 signaling / downstream targets ([2]; listed as halofuginone): does not directly inhibit | excess dermal ECM deposition [3]: reduces
